{
  "source": "patent US10111967B2",
  "about": "“Complexes of RNA and cationic peptides for transfection and for immunostimulation” (CureVac AG, priority 2007, dated 2018)",
  "system": "hPBMC cells",
  "assay": "Immunostimulation of hPBMC cells by RNA/peptide complexes, cytokine production (IL-6, TNF-alpha) by ELISA",
  "assay_type": "cell-based, human",
  "settings": "hPBMCs, 24 h; nona-arginine or mRNA alone (not complexed)",
  "method": "15 μg RNA stabilized luciferase mRNA according to SEQ ID NO: 36 (Luc-RNActive) were mixed in different mass ratios with nona-arginine (Arg9) or poly-L-arginine (Sigma-Aldrich; P4663; 5000-15000 g/mol), thereby forming a complex. Following mass ratios were used as shown exemplarily for ((Arg)9). Poly-L-arginine was used for comparative examples following the same instructions.\nHPBMC cells from peripheral blood of healthy donors were isolated using a Ficoll gradient and washed subsequently with 1×PBS (phosphate-buffered saline). The cells were then seeded on 96-well microtiter plates (200×1 03/well). […] The immunostimulatory effect upon the hPBMC cells was measured by detecting the cytokine production (Interleukin-6 and Tumor necrose factor alpha). […] Then, the plate was again washed with 1×PBS, containing 0.05% TWEEN®-20 surfactant, and ABTS (2,2′-azino-bis(3-ethylbenzthiazoline-6-sulfonic acid) was added as a substrate. The amount of cytokine was determined by measuring the absorption at 405 nm (OD405) using a standard curve with recombinant Cytokines (BD Pharmingen, Heidelberg, Germany) with the Sunrise ELISA-Reader from Tecan (Crailsheim, Germany). […]\nThe effect of R9H3 on immunostimulation was tested in hPBMCs. […] The immunostimulatory effect upon the hPBMC cells was measured by detecting the cytokine production (Interleukin-6 and Tumor necrose factor alpha). […]",
  "data": [
    {"substance": "Arg-Arg-Arg-Arg-Arg-Arg-Arg-Arg-Arg (RRRRRRRRR; Synthetic peptide - Exemplary oligopeptide according to formula I) [nona-arginine ((Arg)9) alone]", "values": [
      {"measurement": "TNFalpha production", "value": "no significant TNFalpha production"}
    ]}
  ]
}
